Data as given in publication PMC9040849 (RSC Advances, 2021).

Key:
[1] = system: influenza A/Puerto Rico/8/34 H1N1 (PR8) virus; assay: microbe, parasite or virus in culture; assay type: cell-based; settings: for IC50: Influenza A virus, H1N1|PR8, A549, 24 h; for SI (selectivity index, ratio of the CC50 to the IC50): A549 cells, PR8
in vitro = settings: human

Structure (SMILES)	IC50 [1] [µM]	CC50 (in vitro) [µM]	expression of HA on infected monolayers (RFU % vs untreated infected cells) [1]	SI (selectivity index, ratio of the CC50 to the IC50) [1]
COC(=O)C(C(C)C)n1c(C)nc2c(=O)[nH]cnc21 (stereo not shown) [Compound 6c, Methyl 3-methyl-2-(8-methyl-6-oxo-1,6-dihydro-9H-purin-9-yl)butanoate]	0.18	0.31		
Cc1nc2c(=O)[nH]cnc2n1C(CO)C(=O)O (stereo not shown) [Compound 7d, 3-Hydroxy-2-(8-methyl-6-oxo-1,6-dihydro-9H-purin-9-yl)propanoic acid]		6.11		
COC(=O)C(C)n1c(C)nc2c(=O)[nH]cnc21 (stereo not shown) [Compound 6b, Methyl 2-(8-methyl-6-oxo-1,6-dihydro-9H-purin-9-yl)propanoate]		0.47		
Cc1nc2c(=O)[nH]cnc2n1C(Cc1ccccc1)C(=O)O (stereo not shown) [Compound 7e, 2-(8-Methyl-6-oxo-1,6-dihydro-9H-purin-9-yl)-3-phenylpropanoic acid]		6.35		
Cc1nc2c(=O)[nH]cnc2n1C(C(=O)O)C(C)C (stereo not shown) [Compound 7c, 3-Methyl-2-(8-methyl-6-oxo-1,6-dihydro-9H-purin-9-yl)butanoic acid]	0.59	1.09	decreased	
COC(=O)C(CO)n1c(C)nc2c(=O)[nH]cnc21 (stereo not shown) [Compound 6d, Methyl 3-hydroxy-2-(8-methyl-6-oxo-1,6-dihydro-9H-purin-9-yl)propanoate]		0.93		
COC(=O)Cn1c(C)nc2c(=O)[nH]cnc21 [Compound 6a, Methyl 2-(8-methyl-6-oxo-1,6-dihydro-9H-purin-9-yl)acetate]	6.96	2.11		0.3
Cc1nc2c(=O)[nH]cnc2n1CC(=O)O [Compound 7a, 2-(8-Methyl-6-oxo-1,6-dihydro-9H-purin-9-yl)acetic acid]	0.89	0.75		0.84
Cc1nc(C#N)c(N)n1C(C)C(=O)O (stereo not shown) [Compound 5b, 2-(5-Amino-4-cyano-2-methyl-1H-imidazol-1-yl)propanoic acid]	3	2.91		1
COC(=O)C(CO)n1c(C)nc(C#N)c1N (stereo not shown) [Compound 4d, Methyl 2-(5-amino-4-cyano-2-methyl-1H-imidazol-1-yl)-3-hydroxypropanoate]	0.68	1.99		
Cc1nc2c(=O)[nH]cnc2n1C(C)C(=O)O (stereo not shown) [Compound 7b, 2-(8-Methyl-6-oxo-1,6-dihydro-9H-purin-9-yl)propanoic acid]	1.85	2.86		
Cc1nc(C#N)c(N)n1C(Cc1ccc(O)cc1)C(=O)O (stereo not shown) [Compound 5f, 2-(5-Amino-4-cyano-2-methyl-1H-imidazol-1-yl)-3-(4-hydroxyphenyl)propanoic acid]	1.99	0.9		0.45
Cc1nc(C#N)c(N)n1C(C(=O)O)C(C)C (stereo not shown) [Compound 5c, 2-(5-Amino-4-cyano-2-methyl-1H-imidazol-1-yl)-3-methylbutanoic acid]	0.83	0.62		0.8
COC(=O)C(Cc1ccc(O)cc1)n1c(C)nc(C#N)c1N (stereo not shown) [Compound 4f, Methyl 2-(5-amino-4-cyano-2-methyl-1H-imidazol-1-yl)-3-(4-hydroxyphenyl)propanoate]	3.2	1.45		0.5
COC(=O)Cn1c(C)nc(C#N)c1N [Compound 4a, Methyl 2-(5-amino-4-cyano-2-methyl-1H-imidazol-1-yl)acetate]		1.02		
COC(=O)C(Cc1ccc(O)cc1)n1c(C)nc2c(=O)[nH]cnc21 (stereo not shown) [Compound 6f, Methyl 3-(4-hydroxyphenyl)-2-(8-methyl-6-oxo-1,6-dihydro-9H-purin-9-yl)propanoate]	0.48	0.8		
COC(=O)C(C(C)C)n1c(C)nc(C#N)c1N (stereo not shown) [Compound 4c, Methyl 2-(5-amino-4-cyano-2-methyl-1H-imidazol-1-yl)-3-methylbutanoate]	2.41	1.13		0.5
COC(=O)C(C)n1c(C)nc(C#N)c1N (stereo not shown) [Compound 4b, Methyl 2-(5-amino-4-cyano-2-methyl-1H-imidazol-1-yl)propanoate]	0.76	2.75		
COC(=O)C(Cc1ccccc1)n1c(C)nc(C#N)c1N (stereo not shown) [Compound 4e, Methyl 2-(5-amino-4-cyano-2-methyl-1H-imidazol-1-yl)-3-phenylpropanoate]	0.39	0.84		
COC(=O)C(Cc1ccccc1)n1c(C)nc2c(=O)[nH]cnc21 (stereo not shown) [Compound 6e, Methyl 2-(8-methyl-6-oxo-1,6-dihydro-9H-purin-9-yl)-3-phenylpropanoate]	1.87	0.51		0.3
Cc1nc(C#N)c(N)n1C(Cc1ccccc1)C(=O)O (stereo not shown) [Compound 5e, 2-(5-Amino-4-cyano-2-methyl-1H-imidazol-1-yl)-3-phenylpropanoic acid]	0.46	3.36		
Cc1nc(C#N)c(N)n1CC(=O)O [Compound 5a, 2-(5-Amino-4-cyano-2-methyl-1H-imidazol-1-yl)acetic acid]	0.76	2.2	decreased	
